Assay [1] concerns EBOV minigenome in Huh7-4P cells. Type of assay: cell-based, Ebola virus.
The target in assay [2] is VP30 protein (Zaire ebolavirus, UniProt Q05323). Type of assay: binding, Ebola virus.
The test system of assay [3] is EBOV minigenome in Huh7-4P cells. It counts as cell-based, Ebola virus. This is another data set of the same source.
Assay [4] deals with VP30/NP interface (VP30_110–272 protein, NP-FITC peptide) (Zaire ebolavirus, UniProt Q05323). As to the kind of experiment: biochemical. Type of assay: binding, Ebola virus.
In assay [5] the target is T1, VP30_110–272 protein (Zaire ebolavirus, UniProt Q05323). Nature of the assay: biochemical. It counts as binding, Ebola virus.
The target in assay [6] is T1, VP30_110–272 protein. It counts as binding, Ebola virus.
Assay [7] has as its target T2, Ebola virus VP30 110-272 protein (MBP tag removed) (Ebola virus (EBOV)), Q05323.
T2 chain: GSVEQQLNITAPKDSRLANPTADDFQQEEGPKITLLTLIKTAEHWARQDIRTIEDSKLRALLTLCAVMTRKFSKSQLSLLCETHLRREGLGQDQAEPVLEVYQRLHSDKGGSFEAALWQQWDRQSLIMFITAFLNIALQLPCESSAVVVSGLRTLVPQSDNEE
Nature of the assay: fluorescence polarisation. (In general: In fluorescence polarisation assays a small probe gives low polarisation when free and higher when bound to something large.)

Assay [8] has as its target NP-FITC (NP-derived VP30-binding peptide labelled with FITC) (Ebola virus (EBOV)). Nature of the assay: fluorescence polarisation.

Entries after “also recorded” stand apart in the source; their conditions may differ.

On to `Cc1cc(SCc2sc(-c3ccc(C(F)(F)F)c(F)c3)nc2C)ccc1OCC(=O)O` [GW0742], for which the “synergistic effect, in words” value in assay [1] is recorded as “does not exhibit obvious synergistic effects”. In assay [2], the “binding to VP30 already bound to Embelin or 8-gingerol, synergy SPR” value is “a reduction in binding was observed”. Further, the “antiviral activity in MG assay, in words” value in assay [3] is “good antiviral activity”.
For the molecule `O=C(O)c1cnc(O)nc1O` [2,4-dihydroxypyrimidine-5-carboxylic acid], in assay [4], the “competitive FP assay, result in words” value is recorded as “failed in the FP concentration gradient experiment”.
In general, Kd refers to a measure of binding affinity in units of concentration. The IC50 is the point on the concentration scale where inhibition reaches its midpoint. Read a high IC50 as a need for much substance. As to `CCCCCCCCCCCC1=C(O)C(=O)C=C(O)C1=O` [Embelin], the Kd in assay [5] is 4.62 µM. For the same molecule, in assay [6], the “effect on stability / melting temperature (Tm) of VP30, TSA” value was “can specifically bind to VP30 and change its melting temperature Tm; also recorded: increased the stability of VP30 at pH 6.5, 7.0, 7.5 and 8.0”. In assay [4] (IC50, competitive FP assay), this molecule yielded an IC50 of 33.2 µM.

B1: unlabeled NP peptide (NP-derived VP30-binding peptide) (peptide)
chain: PTVAPPAPVYR
modifications: not checked
In turn, B1 gave an IC50 in assay [7] of 0.33 µM.

B2: Ebola virus VP30 110-272 protein (MBP tag removed), Q05323 110-272 (domain or fragment)
chain: GSVEQQLNITAPKDSRLANPTADDFQQEEGPKITLLTLIKTAEHWARQDIRTIEDSKLRALLTLCAVMTRKFSKSQLSLLCETHLRREGLGQDQAEPVLEVYQRLHSDKGGSFEAALWQQWDRQSLIMFITAFLNIALQLPCESSAVVVSGLRTLVPQSDNEE
As for B2, the IC50 in assay [8] came out at 3.07 µM.
